Experimental data published in patent US9783536B2, “Nitrogen-containing heterocyclic compound or salt thereof” (FUJIFILM Corporation, priority 2013, dated 2017).
Counter-ions that a name gives are not always drawn. Like-named read-outs stand apart in the source and are kept apart here.

Columns and labels:
[1] = molecular target: T1, human PI3Kα protein (Homo sapiens, UniProt P42336); assay: PI3Kα enzyme assay (ADP-Glo); type: biochemical; details: read-out: PI3Kα enzyme inhibitory activity
T1 construct: purchased Carna Biosciences, Inc; host or cells: baculovirus expression system
T1 sequence (P42336 whole entry): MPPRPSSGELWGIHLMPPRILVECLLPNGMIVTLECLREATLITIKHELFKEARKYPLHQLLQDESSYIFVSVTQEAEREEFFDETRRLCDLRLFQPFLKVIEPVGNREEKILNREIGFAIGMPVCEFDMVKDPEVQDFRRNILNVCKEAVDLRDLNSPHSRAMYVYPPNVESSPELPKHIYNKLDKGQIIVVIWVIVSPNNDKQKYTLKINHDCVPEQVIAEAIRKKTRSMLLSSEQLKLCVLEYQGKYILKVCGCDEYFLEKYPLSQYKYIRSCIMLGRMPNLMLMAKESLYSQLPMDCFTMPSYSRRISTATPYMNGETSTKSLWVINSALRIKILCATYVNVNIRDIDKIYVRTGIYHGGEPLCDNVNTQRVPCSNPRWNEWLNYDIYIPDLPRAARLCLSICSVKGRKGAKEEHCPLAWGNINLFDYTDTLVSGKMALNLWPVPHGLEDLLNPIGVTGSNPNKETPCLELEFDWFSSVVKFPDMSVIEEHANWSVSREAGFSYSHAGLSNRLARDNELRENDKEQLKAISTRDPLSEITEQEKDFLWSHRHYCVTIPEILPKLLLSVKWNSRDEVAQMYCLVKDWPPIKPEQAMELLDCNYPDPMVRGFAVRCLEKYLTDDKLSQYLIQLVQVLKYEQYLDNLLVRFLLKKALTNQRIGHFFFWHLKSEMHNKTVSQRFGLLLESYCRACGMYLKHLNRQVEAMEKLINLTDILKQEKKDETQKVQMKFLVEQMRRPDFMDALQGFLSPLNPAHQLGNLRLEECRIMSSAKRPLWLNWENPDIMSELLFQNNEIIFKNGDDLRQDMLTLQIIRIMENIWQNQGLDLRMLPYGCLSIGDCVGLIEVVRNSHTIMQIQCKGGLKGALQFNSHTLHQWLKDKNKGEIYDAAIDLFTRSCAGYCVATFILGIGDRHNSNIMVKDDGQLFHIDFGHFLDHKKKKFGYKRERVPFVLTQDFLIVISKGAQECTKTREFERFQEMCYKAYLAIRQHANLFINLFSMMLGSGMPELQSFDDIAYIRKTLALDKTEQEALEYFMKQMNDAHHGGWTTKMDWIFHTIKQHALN
T1 sequence (P27986 whole entry partner): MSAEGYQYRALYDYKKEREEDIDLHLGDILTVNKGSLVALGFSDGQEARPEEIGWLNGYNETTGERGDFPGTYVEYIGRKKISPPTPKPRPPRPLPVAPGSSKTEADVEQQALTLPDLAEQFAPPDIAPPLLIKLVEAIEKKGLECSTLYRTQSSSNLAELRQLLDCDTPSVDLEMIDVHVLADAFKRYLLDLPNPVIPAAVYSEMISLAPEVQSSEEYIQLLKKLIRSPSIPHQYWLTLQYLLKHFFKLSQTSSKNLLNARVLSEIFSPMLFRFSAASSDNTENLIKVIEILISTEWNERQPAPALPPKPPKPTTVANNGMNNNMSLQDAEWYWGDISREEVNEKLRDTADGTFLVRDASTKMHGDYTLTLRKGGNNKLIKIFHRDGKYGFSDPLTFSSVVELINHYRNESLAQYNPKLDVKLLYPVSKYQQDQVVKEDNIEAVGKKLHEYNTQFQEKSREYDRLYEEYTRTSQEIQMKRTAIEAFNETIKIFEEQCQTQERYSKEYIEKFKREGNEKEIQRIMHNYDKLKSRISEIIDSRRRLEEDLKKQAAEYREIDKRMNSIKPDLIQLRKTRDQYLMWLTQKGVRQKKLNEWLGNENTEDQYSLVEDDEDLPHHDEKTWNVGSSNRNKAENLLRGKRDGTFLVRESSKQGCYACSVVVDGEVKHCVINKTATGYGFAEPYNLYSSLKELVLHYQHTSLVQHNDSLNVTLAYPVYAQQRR
Outline: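 Biotinylated human PI3Kα (baculovirus-expressed, 4.5 nmol/L) pre-incubated 15 min with compound in Tris-HCl pH 7.5, MgCl2, BSA; reaction 60 min at 25° C with 50 μmol/L PIP2 and 100 μmol/L ATP final. ADP quantified by ADP-Glo luminescence; IC50 calculated.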

[2] = molecular target: T2, GST fusion human ERK2 protein (Homo sapiens, UniProt P28482); assay: ERK2 enzyme assay (2); type: biochemical; details: read-out: ERK2 enzyme inhibitory activity (2)
T2 construct: purchased Carna Biosciences, Inc; host or cells: E. coli expression system
T2 sequence (P28482 whole entry, the tested form may be a part): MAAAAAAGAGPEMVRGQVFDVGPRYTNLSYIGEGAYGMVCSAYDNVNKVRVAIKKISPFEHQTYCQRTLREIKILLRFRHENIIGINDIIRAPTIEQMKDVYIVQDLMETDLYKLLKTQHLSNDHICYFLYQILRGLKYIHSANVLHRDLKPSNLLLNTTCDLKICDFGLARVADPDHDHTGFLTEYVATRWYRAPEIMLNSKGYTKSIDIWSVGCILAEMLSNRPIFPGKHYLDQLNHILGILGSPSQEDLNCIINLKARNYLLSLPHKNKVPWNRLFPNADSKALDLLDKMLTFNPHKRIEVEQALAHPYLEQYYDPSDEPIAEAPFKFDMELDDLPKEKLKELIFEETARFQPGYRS
Outline: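 GST-tagged human ERK2 expressed in E. coli (1.25 nmol/L) was preincubated with compound for 15 min at room temperature in pH 7.5 Hepes buffer with MgCl2, DTT and Brij35. Reaction with FL-Peptide 8 (final 4.25 μmol/L) and ATP (final 1 mmol/L) ran 120 min at 25 °C; EDTA stopped it, and phosphorylated peptide was quantified by mobility-shift separation to derive IC50.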

| Structure (SMILES) | IC50 [1] [nM] | IC50 ([2]; ERK2 enzyme assay (2)) [nM] | IC50 [2] [nM] |
| --- | --- | --- | --- |
| CC(C)c1cnnc(Nc2ccc3ncc(-c4cnn(C)c4-c4cccnc4)cc3n2)c1 [Example 0575] | < 1000 | < 1000 |  |
| CC(C)c1cnnc(Nc2ccc3ncc(-c4cnn(CCCN5CCN(c6cccnc6)CC5)c4)cc3n2)c1 [Example 0446] | < 1000 | < 1000 |  |
| CC(C)c1cnnc(Nc2ccc3ncc(-c4cc(-c5ccccn5)nn4C)cc3n2)c1 [Example 0837, N-(5-isopropylpyridazin-3-yl)-7-(1-methyl-3-(pyridin-2-yl)-1H-pyrazol-5-yl)-1,5-naphthyridine-2-amine] | 1000 to 10000 | < 1000 |  |
| CO[C@H]1CC[C@H](Cn2cc(-c3cnc4ccc(Nc5cc(C(C)C)cnn5)nc4c3)cn2)CC1 [Example 0522, N-(5-isopropylpyridazin-3-yl)-7-(1-(((1r,4r)-4-methoxycyclohexyl)methyl)-1H-pyrazol-4-yl)-1,5-naphthyridine-2-amine] | < 1000 | < 1000 |  |
| CC(C)c1cnnc(Nc2ccc3ncc(-c4cnn(CCOC5CN(C)C5)c4)cc3n2)c1 [Example 0741, N-(5-isopropylpyridazin-3-yl)-7-(1-(2-((1-methylazetidin-3-yl)oxy)ethyl)-1H-pyrazol-4-yl)-1,5-naphthyridine-2-amine] | < 1000 | < 1000 |  |
| CC(C)c1cnnc(Nc2ccc3ncc(Br)cc3n2)c1 [Example 0929, 7-bromo-N-(5-isopropylpyridazin-3-yl)-1,5-naphthyridine-2-amine] | 1000 to 10000 |  | < 1000 |
| Cc1cccc(Cn2cc(-c3cnc4ccc(Nc5cc(C(C)C)cnn5)nc4c3)cn2)n1 [Example 0411, N-(5-isopropylpyridazin-3-yl)-7-(1-((6-methylpyridin-2-yl)methyl)-1H-pyrazol-4-yl)-1,5-naphthyridine-2-amine] | < 1000 | < 1000 |  |
| CC(C)c1cnnc(Nc2ccc3ncc(-c4cnn(CC(F)(F)CN5CCCC5)c4)cc3n2)c1 [Example 0735, 7-(1-(2,2-Difluoro-3-(pyrrolidin-1-yl)propyl)-1H-pyrazol-4-yl)-N-(5-isopropylpyridazin-3-yl)-1,5-naphthyridine-2-amine] | < 1000 | < 1000 |  |
| CC(C)c1cnnc(Nc2ccc3ncc(N4CCS(=O)(=O)CC4)cc3n2)c1 [Example 0857] | 1000 to 10000 | < 1000 |  |
| CC(C)c1cnnc(Nc2ccc3ncc(C(=O)NCCO)cc3n2)c1 [Example 0655, N-(2-hydroxyethyl)-6-((5-isopropylpyridazin-3-yl)amino)-1,5-naphthyridine-3-carboxamide] | 1000 to 10000 | 1000 to 10000 |  |
| CC(C)c1cnnc(Nc2ccc3ncc(-c4cncs4)cc3n2)c1 [Example 0620] | < 1000 | < 1000 |  |
| CC(C)c1cnnc(Nc2ccc3ncc(N4CCCCC4)cc3n2)c1 [Example 0845, N-(5-isopropylpyridazin-3-yl)-7-(piperidin-1-yl)-1,5-naphthyridine-2-amine] | 1000 to 10000 | < 1000 |  |
| COc1ccc(-c2nn(C)cc2-c2cnc3ccc(Nc4cc(C(C)C)cnn4)nc3c2)cc1 [Example 0584] | < 1000 | < 1000 |  |
| CC(C)c1cnnc(Nc2ccc3ncc(-c4cnn(Cc5cccc([N+](=O)[O-])c5)c4)cc3n2)c1 [Example 0711] | < 1000 | < 1000 |  |
| CC(C)c1cnnc(Nc2ccc3ncc(-c4cnn(CCCN5CC(C(=O)O)C5)c4)cc3n2)c1 [Example 0666] | < 1000 | < 1000 |  |
| CC(C)c1cnnc(Nc2ccc3ncc(-c4cn(C)nc4-c4cncnc4)cc3n2)c1 [Example 0553] | < 1000 | < 1000 |  |

| Structure (SMILES) | IC50 [1] [nM] | IC50 ([2]; ERK2 enzyme assay (2)) [nM] | IC50 [2] [nM] |
| --- | --- | --- | --- |
| CC(C)c1cnnc(Nc2ccc3ncc(-c4cnn(C(C)C)c4)cc3n2)c1 [Example 0442] | < 1000 | < 1000 |  |
| CC(C)c1cnnc(Nc2ccc3ncc(/C=C/c4ccncc4)cc3n2)c1 [Example 0652, (E)-N-(5-isopropylpyridazin-3-yl)-7-(2-(pyridin-4-yl)vinyl)-1,5-naphthyridine-2-amine] | < 1000 | < 1000 |  |
| CC(C)c1cnnc(Nc2ccc3ncc(-c4cn(C)nc4-c4ccc(OCC(=O)N(C)C)cc4)cc3n2)c1 [Example 0777, 2-(4-(4-(6-((5-Isopropylpyridazin-3-yl)amino)-1,5-naphthyridin-3-yl)-1-methyl-1H-pyrazol-3-yl)phenoxy)-N,N-dimethylacetamide] | < 1000 | < 1000 |  |
| CCOC(C)c1cnnc(Nc2ccc3ncc(-c4cnn(C)c4)cc3n2)c1 (centres unmarked) [Example 0920] | < 1000 |  | < 1000 |
| CC(C)c1cnnc(Nc2ccc3ncc(-c4cn(C)nc4-c4ccnnc4)cc3n2)c1 [Example 0843, N-(5-isopropylpyridazin-3-yl)-7-(1-methyl-3-(pyridazin-4-yl)-1H-pyrazol-4-yl)-1,5-naphthyridine-2-amine] | < 1000 | < 1000 |  |
| CC(=O)N1CCC(Cn2cc(-c3cnc4ccc(Nc5cc(C(C)C)cnn5)nc4c3)cn2)CC1 [Example 0528, 1-(4-((4-(6-((5-Isopropylpyridazin-3-yl)amino)-1,5-naphthyridin-3-yl)-1H-pyrazol-1-yl)methyl)piperidin-1-yl)ethanone] | < 1000 | < 1000 |  |
| CC(C)c1cnnc(Nc2ccc3ncc(-c4cnn(CCN5CC6(COC6)C5)c4)cc3n2)c1 [Example 0619, 7-(1-(2-(2-Oxa-6-azaspiro[3.3]heptan-6-yl)ethyl)-1H-pyrazol-4-yl)-N-(5-isopropylpyridazin-3-yl)-1,5-naphthyridine-2-amine] | < 1000 | < 1000 |  |
| COc1ncccc1-c1cnc2ccc(Nc3cc(C(C)C)cnn3)nc2c1 [Example 0591] | 1000 to 10000 | < 1000 |  |
| CC(C)c1cnnc(Nc2ccc3ncc(-c4cn(C)nc4COc4cccnn4)cc3n2)c1 [Example 0913, N-(5-isopropylpyridazin-3-yl)-7-(1-methyl-3-((pyridazin-3-yloxy)methyl)-1H-pyrazol-4-yl)-1,5-naphthyridine-2-amine] | < 1000 |  | < 1000 |
| COc1cnnc(Nc2ccc3ncc(-c4cnn(CCCN5CCOCC5)c4)cc3n2)c1 [Example 0496, N-(5-methoxypyridazin-3-yl)-7-(1-(3-morpholinopropyl)-1H-pyrazol-4-yl)-1,5-naphthyridine-2-amine] | < 1000 | < 1000 |  |
| CC(C)c1cnnc(Nc2ccc3ncc(-c4cnn(CC(F)(F)CN5CCOCC5)c4)cc3n2)c1 [Example 0731] | < 1000 | < 1000 |  |
| CC(C)c1cnnc(Nc2ccc3ncc(-c4cc(N)ncn4)cc3n2)c1 [Example 0765] | < 1000 | < 1000 |  |
| CC(=O)N1CCCC(Nc2cnc3ccc(Nc4cc(C(C)C)cnn4)nc3c2)C1 (centres unmarked) [Example 0541] | < 1000 | 1000 to 10000 |  |
| CC(C)c1cnnc(Nc2ccc3ncc(-c4cnn(CCC5CCNCC5)c4)cc3n2)c1 [Example 0488, hydrochloric acid salt of N-(5-isopropylpyridazin-3-yl)-7-(1-(2-(piperidin-4-yl)ethyl)-1H-pyrazol-4-yl)-1,5-naphthyridine-2-amine] | < 1000 | < 1000 |  |
| Cc1nn(C)cc1-c1cnc2ccc(Nc3cc(C4CCCCC4)cnn3)nc2c1 [Example 0926, N-(5-cyclohexylpyridazin-3-yl)-7-(1,3-dimethyl-1H-pyrazol-4-yl)-1,5-naphthyridine-2-amine] | < 1000 |  | < 1000 |
